# In US10508104B2, “6-hydroxy-5-(phenyl/heteroarylsulfonyl)pyrimidin-4(1H)-one as APJ agonists” (Bristol-Myers Squibb Company, priority 2016, dated 2019):
# Target: human APJ receptor (Homo sapiens (Human), UniProt P35414)
# Experiment: Intracellular cAMP accumulation assay (APJ hcAMP, HTRF)
# Assay type: cell-based
# Conditions: human APJ, intracellular cAMP accumulation; read-out: Human APJ cAMP EC50 Potency range
# Summary of the method: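 HEK293 cells stably expressing human APJ, 5,000 per well, incubated 30 min at rt with compound, […] and 2 μM forskolin. cAMP measured by HTRF against a cAMP standard curve as inhibition of forskolin-driven production. EC50 from variable-slope sigmoidal fit.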
# human APJ receptor, sequence (P35414 whole entry): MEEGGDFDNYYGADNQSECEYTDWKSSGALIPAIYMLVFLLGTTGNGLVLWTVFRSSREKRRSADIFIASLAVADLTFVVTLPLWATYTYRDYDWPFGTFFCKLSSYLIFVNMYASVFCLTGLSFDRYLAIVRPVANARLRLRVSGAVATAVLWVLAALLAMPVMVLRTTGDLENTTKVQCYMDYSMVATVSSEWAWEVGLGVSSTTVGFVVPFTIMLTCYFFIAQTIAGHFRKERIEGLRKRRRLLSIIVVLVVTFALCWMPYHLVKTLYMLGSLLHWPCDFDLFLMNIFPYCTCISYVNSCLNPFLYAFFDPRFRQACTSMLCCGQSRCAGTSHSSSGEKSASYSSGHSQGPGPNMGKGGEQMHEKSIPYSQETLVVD
row,SMILES,EC50
1,"CCCCc1nc(=O)c(S(=O)(=O)c2ccc(-c3cc(C)nc(C)c3)cc2)c(O)n1[C@@H](COC)c1ccccc1 [Example 154, 2-butyl-5-[4-(2,6-dimethylpyridin-4-yl)benzenesulfonyl]-6-hydroxy-1-[(1R)-2-methoxy-1-phenylethyl]-1,4-dihydropyrimidin-4-one]",10 to 100 nM
2,"CCCCc1nc(=O)c(S(=O)(=O)c2ccc(-c3ccnc(C)c3)cc2)c(O)n1[C@H]1CCc2ccccc21 [Example 156, 2-butyl-1-[(1S)-2,3-dihydro-1H-inden-1-yl]-6-hydroxy-5-[4-(2-methylpyridin-4-yl)benzenesulfonyl]-1,4-dihydropyrimidin-4-one]",100 to 300 nM
3,"CCCCc1nc(=O)c(S(=O)(=O)c2ccc(-c3cncc(C)c3)cc2)c(O)n1[C@H]1CCc2ccccc21 [Example 160, 2-butyl-1-[(1S)-2,3-dihydro-1H-inden-1-yl]-6-hydroxy-5-[4-(5-methylpyridin-3-yl)benzenesulfonyl]-1,4-dihydropyrimidin-4-one]",100 to 300 nM
4,"CCCCc1nc(=O)c(S(=O)(=O)c2ccc(-c3cc(C)nc(C)c3)cc2)c(O)n1[C@H]1CCc2ccccc21 [Example 161, 2-butyl-1-[(1S)-2,3-dihydro-1H-inden-1-yl]-5-[4-(2,6-dimethylpyridin-4-yl)benzenesulfonyl]-6-hydroxy-1,4-dihydropyrimidin-4-one]",100 to 300 nM
5,"CCCCc1nc(=O)c(S(=O)(=O)c2ccc(-c3cncc(F)c3)cc2)c(O)n1[C@H](C)c1cccc(C#N)c1 [Example 162, 3-[(1R)-1-{2-butyl-5-[4-(5-fluoropyridin-3-yl)benzenesulfonyl]-6-hydroxy-4-oxo-1,4-dihydropyrimidin-1-yl}ethyl]benzonitrile]",10 to 100 nM
6,"CCCCc1nc(=O)c(S(=O)(=O)c2ccc(-c3ccc(F)nc3)cc2)c(O)n1[C@H](C)c1cccc(C#N)c1 [Example 166, 3-[(1R)-1-{2-butyl-5-[4-(6-fluoropyridin-3-yl)benzenesulfonyl]-6-hydroxy-4-oxo-1,4-dihydropyrimidin-1-yl}ethyl]benzonitrile]",10 to 100 nM
7,"CCCCc1nc(=O)c(S(=O)(=O)c2ccc(-c3cncc(F)c3)cc2)c(O)n1[C@H]1CCc2ccccc21 [Example 168, 2-butyl-1-[(1S)-2,3-dihydro-1H-inden-1-yl]-5-[4-(5-fluoropyridin-3-yl)benzenesulfonyl]-6-hydroxy-1,4-dihydropyrimidin-4-one]",0.01 to 10 nM
8,"CCCCc1nc(=O)c(S(=O)(=O)c2ccc(-c3ccnc(F)c3C)cc2)c(O)n1[C@@H](CC)c1cccc(OC)c1 [Example 169, 2-butyl-5-[4-(2-fluoro-3-methylpyridin-4-yl)benzenesulfonyl]-6-hydroxy-1-[(1S)-1-(3-methoxyphenyl)propyl]-1,4-dihydropyrimidin-4-one]",0.01 to 10 nM
9,"CCCCc1nc(=O)c(S(=O)(=O)c2ccc(-c3cnc(F)cc3C)cc2)c(O)n1[C@H]1CCc2ccccc21 [Example 170, 2-butyl-1-[(1S)-2,3-dihydro-1H-inden-1-yl]-5-[4-(6-fluoro-4-methylpyridin-3-yl)benzenesulfonyl]-6-hydroxy-1,4-dihydropyrimidin-4-one]",0.01 to 10 nM
10,"CCCCc1nc(=O)c(S(=O)(=O)c2ccc(-c3ccc(F)nc3C)cc2)c(O)n1[C@H]1CCc2ccccc21 [Example 171, 2-butyl-1-[(1S)-2,3-dihydro-1H-inden-1-yl]-5-[4-(6-fluoro-2-methylpyridin-3-yl)benzenesulfonyl]-6-hydroxy-1,4-dihydropyrimidin-4-one]",0.01 to 10 nM
11,"CCCc1nc(=O)c(S(=O)(=O)c2ccc(-c3cncc(F)c3)cc2)c(O)n1[C@@H](COC)c1ccccc1 [Example 172, 5-[4-(5-fluoropyridin-3-yl)benzenesulfonyl]-6-hydroxy-1-[(1R)-2-methoxy-1-phenylethyl]-2-propyl-1,4-dihydropyrimidin-4-one]",0.01 to 10 nM
12,"CCCc1nc(=O)c(S(=O)(=O)c2ccc(-c3cccnc3C)cc2)c(O)n1[C@@H](COC)c1ccccc1 [Example 173, 6-hydroxy-1-[(1R)-2-methoxy-1-phenylethyl]-5-[4-(2-methylpyridin-3-yl)benzenesulfonyl]-2-propyl-1,4-dihydropyrimidin-4-one]",0.01 to 10 nM
13,"CCCc1nc(=O)c(S(=O)(=O)c2ccc(-c3ccc(F)nc3)cc2)c(O)n1[C@@H](COC)c1ccccc1 [Example 174, 5-[4-(6-fluoropyridin-3-yl)benzenesulfonyl]-6-hydroxy-1-[(1R)-2-methoxy-1-phenylethyl]-2-propyl-1,4-dihydropyrimidin-4-one]",0.01 to 10 nM
14,"CCCc1nc(=O)c(S(=O)(=O)c2ccc(-c3ccncc3C)cc2)c(O)n1[C@@H](COC)c1ccccc1 [Example 175, 6-hydroxy-1-[(1R)-2-methoxy-1-phenylethyl]-5-[4-(3-methylpyridin-4-yl)benzenesulfonyl]-2-propyl-1,4-dihydropyrimidin-4-one]",0.01 to 10 nM
15,"CCCc1nc(=O)c(S(=O)(=O)c2ccc(-c3ccnc(F)c3C)cc2)c(O)n1[C@@H](COC)c1ccccc1 [Example 176, 5-[4-(2-fluoro-3-methylpyridin-4-yl)benzenesulfonyl]-6-hydroxy-1-[(1R)-2-methoxy-1-phenylethyl]-2-propyl-1,4-dihydropyrimidin-4-one]",0.01 to 10 nM
16,"CCCc1nc(=O)c(S(=O)(=O)c2ccc(-c3ccc(F)nc3C)cc2)c(O)n1[C@@H](COC)c1ccccc1 [Example 177, 5-[4-(6-fluoro-2-methylpyridin-3-yl)benzenesulfonyl]-6-hydroxy-1-[(1R)-2-methoxy-1-phenylethyl]-2-propyl-1,4-dihydropyrimidin-4-one]",0.01 to 10 nM

# The next lines start with the values.
row,EC50,SMILES
1,0.01 to 10 nM,"CCCCc1nc(=O)c(S(=O)(=O)c2ccc(-c3cccnc3C)cc2)c(O)n1[C@@H](COC)c1ccccc1 [Example 149, 2-butyl-6-hydroxy-1-[(1R)-2-methoxy-1-phenylethyl]-5-[4-(2-methylpyridin-3-yl)benzenesulfonyl]-1,4-dihydropyrimidin-4-one]"
2,0.01 to 10 nM,"CCCCc1nc(=O)c(S(=O)(=O)c2ccc(-c3ccc(F)nc3C)cc2)c(O)n1[C@@H](COC)c1ccccc1 [Example 150, 2-butyl-5-[4-(6-fluoro-2-methylpyridin-3-yl)benzenesulfonyl]-6-hydroxy-1-[(1R)-2-methoxy-1-phenylethyl]-1,4-dihydropyrimidin-4-one]"
3,0.01 to 10 nM,"CCCCc1nc(=O)c(S(=O)(=O)c2ccc(-c3cncc(C)c3)cc2)c(O)n1[C@@H](COC)c1ccccc1 [Example 151, 2-butyl-6-hydroxy-1-[(1R)-2-methoxy-1-phenylethyl]-5-[4-(5-methylpyridin-3-yl)benzenesulfonyl]-1,4-dihydropyrimidin-4-one]"
4,0.01 to 10 nM,"CCCCc1nc(=O)c(S(=O)(=O)c2ccc(-c3cnc(F)cc3C)cc2)c(O)n1[C@@H](COC)c1ccccc1 [Example 152, 2-butyl-5-[4-(6-fluoro-4-methylpyridin-3-yl)benzenesulfonyl]-6-hydroxy-1-[(1R)-2-methoxy-1-phenylethyl]-1,4-dihydropyrimidin-4-one]"
5,0.01 to 10 nM,"CCCCc1nc(=O)c(S(=O)(=O)c2ccc(-c3ccnc(C)c3)cc2)c(O)n1[C@@H](COC)c1ccccc1 [Example 153, 2-butyl-6-hydroxy-1-[(1R)-2-methoxy-1-phenylethyl]-5-[4-(2-methylpyridin-4-yl)benzenesulfonyl]-1,4-dihydropyrimidin-4-one]"
6,0.01 to 10 nM,"CCCCc1nc(=O)c(S(=O)(=O)c2ccc(-c3ccncc3C)cc2)c(O)n1[C@H]1CCc2ccccc21 [Example 155, 2-butyl-1-[(1S)-2,3-dihydro-1H-inden-1-yl]-6-hydroxy-5-[4-(3-methylpyridin-4-yl)benzenesulfonyl]-1,4-dihydropyrimidin-4-one]"
7,0.01 to 10 nM,"CCCCc1nc(=O)c(S(=O)(=O)c2ccc(-c3cccnc3C)cc2)c(O)n1[C@H]1CCc2ccccc21 [Example 157, 2-butyl-1-[(1S)-2,3-dihydro-1H-inden-1-yl]-6-hydroxy-5-[4-(2-methylpyridin-3-yl)benzenesulfonyl]-1,4-dihydropyrimidin-4-one]"
8,0.01 to 10 nM,"CCCCc1nc(=O)c(S(=O)(=O)c2ccc(-c3ccncc3C)cc2)c(O)n1[C@H](C)c1cccc(C#N)c1 [Example 158, 3-[(1R)-1-{2-butyl-6-hydroxy-5-[4-(3-methylpyridin-4-yl)benzenesulfonyl]-4-oxo-1,4-dihydropyrimidin-1-yl}ethyl]benzonitrile]"
9,0.01 to 10 nM,"CCCCc1nc(=O)c(S(=O)(=O)c2ccc(-c3ccnc(F)c3C)cc2)c(O)n1[C@H](C)c1cccc(C#N)c1 [Example 159, 3-[(1R)-1-{2-butyl-5-[4-(2-fluoro-3-methylpyridin-4-yl)benzenesulfonyl]-6-hydroxy-4-oxo-1,4-dihydropyrimidin-1-yl}ethyl]benzonitrile]"
10,0.01 to 10 nM,"CCCCc1nc(=O)c(S(=O)(=O)c2ccc(-c3ccc(F)nc3)cc2)c(O)n1[C@H]1CCc2ccccc21 [Example 163, 2-butyl-1-[(1S)-2,3-dihydro-1H-inden-1-yl]-5-[4-(6-fluoropyridin-3-yl)benzenesulfonyl]-6-hydroxy-1,4-dihydropyrimidin-4-one]"
11,0.01 to 10 nM,"CCCCc1nc(=O)c(S(=O)(=O)c2ccc(-c3ccnc(F)c3C)cc2)c(O)n1[C@H]1CCc2ccccc21 [Example 164, 2-butyl-1-[(1S)-2,3-dihydro-1H-inden-1-yl]-5-[4-(2-fluoro-3-methylpyridin-4-yl)benzenesulfonyl]-6-hydroxy-1,4-dihydropyrimidin-4-one]"
12,0.01 to 10 nM,"CCCCc1nc(=O)c(S(=O)(=O)c2ccc(-c3cccnc3C)cc2)c(O)n1[C@@H](CC)c1cccc(OC)c1 [Example 165, 2-butyl-6-hydroxy-1-[(1S)-1-(3-methoxyphenyl)propyl]-5-[4-(2-methylpyridin-3-yl)benzenesulfonyl]-1,4-dihydropyrimidin-4-one]"
13,0.01 to 10 nM,"CCCCc1nc(=O)c(S(=O)(=O)c2ccc(-c3ccc(OC)nc3C)cc2)c(O)n1[C@H]1CCc2ccccc21 [Example 167, 2-butyl-1-[(1S)-2,3-dihydro-1H-inden-1-yl]-6-hydroxy-5-[4-(6-methoxy-2-methylpyridin-3-yl)benzenesulfonyl]-1,4-dihydropyrimidin-4-one]"
